In patent US10780090B2, “Heteroaryl compounds useful as inhibitors of SUMO activating enzyme” (Millennium Pharmaceuticals, Inc., priority 2014, dated 2020):
pIC50: −log10 of the molar value. Where two headings read alike, the source gives them in different places.

Molecular target: recombinant human SAE enzyme (Homo sapiens (Human), UniProt Q9UBT2)
Assay: SAE HTRF enzyme assay
Assay type: biochemical
Conditions: for pIC50: class symbols A/B/C; for IC50: SAE inhibition, class symbols, legend in nM; for inhibition at 0.111 µM: read-out: Percent Inhibition
Summary of the method: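 Sumoylation of Ubc9-GST by SAE was followed at low ATP (0.5 μM), pH 7.5, 24° C. for 105 min. Product was detected by HTRF with antibody pairs against Flag and GST tags.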

[1] = SAE inhibition at compound concentration 0.111 μM

Chain of recombinant human SAE enzyme (Q9UBT2 whole entry): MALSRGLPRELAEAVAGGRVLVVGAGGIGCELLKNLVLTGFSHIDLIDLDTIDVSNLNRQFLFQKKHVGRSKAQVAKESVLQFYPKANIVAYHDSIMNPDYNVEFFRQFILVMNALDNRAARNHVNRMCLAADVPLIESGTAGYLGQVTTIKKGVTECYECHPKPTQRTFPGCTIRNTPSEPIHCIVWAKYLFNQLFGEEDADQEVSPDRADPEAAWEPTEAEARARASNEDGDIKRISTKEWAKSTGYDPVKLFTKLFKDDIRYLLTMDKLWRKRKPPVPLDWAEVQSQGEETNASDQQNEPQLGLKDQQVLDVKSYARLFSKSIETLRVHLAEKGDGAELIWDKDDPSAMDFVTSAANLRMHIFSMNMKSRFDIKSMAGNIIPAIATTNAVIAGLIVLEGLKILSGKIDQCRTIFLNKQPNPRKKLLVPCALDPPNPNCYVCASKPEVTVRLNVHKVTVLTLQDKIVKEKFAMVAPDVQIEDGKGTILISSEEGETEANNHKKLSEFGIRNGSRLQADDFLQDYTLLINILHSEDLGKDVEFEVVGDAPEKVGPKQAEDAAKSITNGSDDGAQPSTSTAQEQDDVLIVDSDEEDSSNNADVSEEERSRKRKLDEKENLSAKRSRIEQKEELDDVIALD
Chain of recombinant human SAE enzyme (Q9UBE0 whole entry partner): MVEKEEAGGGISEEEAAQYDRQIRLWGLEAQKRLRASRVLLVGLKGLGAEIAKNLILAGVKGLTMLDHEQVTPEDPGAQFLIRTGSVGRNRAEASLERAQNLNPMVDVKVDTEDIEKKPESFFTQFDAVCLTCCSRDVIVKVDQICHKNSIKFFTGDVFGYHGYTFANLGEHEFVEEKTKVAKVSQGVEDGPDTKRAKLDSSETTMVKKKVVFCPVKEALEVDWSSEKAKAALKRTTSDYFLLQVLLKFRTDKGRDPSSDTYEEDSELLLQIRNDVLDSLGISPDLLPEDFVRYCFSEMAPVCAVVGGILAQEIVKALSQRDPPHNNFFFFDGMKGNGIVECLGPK

SMILES	pIC50	Percent Inhibition [1]	IC50	other results
Cc1sc(C(=O)c2cncnc2N[C@@H]2C[C@H](COS(N)(=O)=O)[C@@H](O)[C@@H]2F)cc1[C@@H]1OCCc2ccccc21 (single isomer, unassigned) [I-271a, [(1R,2R,3R,4R)-4-{([5-({4-[(1R)-3,4-dihydro-1H-isochromen-1-yl]-5-methyl-2-thienyl)carbonyl)pyrimidin-4-yl]amino}-3-fluoro-2-hydroxycyclopentyl]methyl sulfamate or [(1R,2R,3R,4R)-4-{([5-({4-[(1S)-3,4-dihydro-1H-isochromen-l-yl]-5-methyl-2-thienyl}carbonyl)pyrimidin-4-yl]amino}-3-fluoro-2-hydroxycyclopentyl]methyl sulfamate]	> 8.00	–	–	Percent Inhibition (Concentration 0.111 μM): 99
NS(=O)(=O)OC[C@H]1C[C@@H](Nc2ncncc2C(=O)c2cc([C@@H]3OC(=O)c4ccc(Cl)cc43)c(Cl)s2)C[C@@H]1O (mixture of isomers) [I-327, [(1R,2S,4R)-4-{[5-({5-chloro-4-[(1R)-6-chloro-3-oxo-1,3-dihydro-2-benzofuran-1-yl]-2-thienyl}carbonyl)pyrimidin-4-yl]amino}-2-hydroxycyclopentyl]methyl sulfamate and [(1R,2S,4R)-4-{[5-({5-chloro-4-[(1S)-6-chloro-3-oxo-1,3-dihydro-2-benzofuran-1-yl]-2-thienyl}carbonyl)pyrimidin-4-yl]amino}-2-hydroxycyclopentyl]methyl sulfamate]	–	51%	100 to 1000 nM	–
N[C@H](c1cccc(Cl)c1)c1cc(C(=O)c2cncnc2N[C@@H]2C[C@H](COS(N)(=O)=O)[C@@H](O)C2)sc1Cl (single isomer, unassigned) [I-15a, [(1R,2S,4R)-4-{[5-({4-[(R)-amino(3-chlorophenyl)methyl]-5-chloro-2-thienyl}carbonyl)pyrimidin-4-yl]amino}-2-hydroxycyclopentyl]methyl sulfamate or [(1R,2S,4R)-4-{[5-({4-[(S)-amino(3-chlorophenyl)methyl]-5-chloro-2-thienyl}carbonyl)pyrimidin-4-yl]amino}-2-hydroxycyclopentyl]methyl sulfamate]	7.00 to 8.00	–	–	Percent Inhibition (Concentration 0.111 μM): 66
Cc1sc(C(=O)c2cncnc2N[C@@H]2C[C@H](COS(N)(=O)=O)[C@@H](O)[C@H]2O)cc1[C@@H]1OCCc2ccccc21 (single isomer, unassigned) [I-250b, [(1R,2R,3S,4R)-4-{[5-({4-[(1R)-3,4-dihydro-1H-isochromen-1-yl]-5-methyl-2-thienyl}carbonyl)pyrimidin-4-yl]amino}-2,3-dihydroxycyclopentyl]methyl sulfamate or [(1R,2R,3S,4R)-4-{[5-({4-[(1S)-3,4-dihydro-1H-isochromen-1-yl]-5-methyl-2-thienyl}carbonyl)pyrimidin-4-yl]amino}-2,3-dihydroxycyclopentyl]methyl sulfamate]	> 8.00	–	–	Percent Inhibition (Concentration 0.111 μM): 98
Cc1sc(C(=O)c2cncnc2N[C@@H]2C[C@H](COS(N)(=O)=O)[C@@H](O)C2)cc1[C@@H]1OCCn2cc(C(F)(F)F)nc21 (mixture of isomers) [I-337, [(1R,2S,4R)-2-hydroxy-4-{[5-({5-methyl-4-[(8S)-2-(trifluoromethyl)-5,6-dihydro-8H-imidazo[2,1-c][1,4]oxazin-8-yl]-2-thienyl}carbonyl)pyrimidin-4-yl]amino}cyclopentyl]methyl sulfamate and [(1R,2S,4R)-2-hydroxy-4-{[5-({5-methyl-4-[(8R)-2-(trifluoromethyl)-5,6-dihydro-8H-imidazo[2,1-c][1,4]oxazin-8-yl]-2-thienyl}carbonyl)pyrimidin-4-yl]amino}cyclopentyl]methyl sulfamate]	–	89%	10 to 100 nM	–
NS(=O)(=O)OC[C@H]1C[C@@H](Nc2ncncc2C(=O)c2cc(Cc3ccc(Cl)cc3)cs2)C[C@@H]1O [I-157, {(1R,2S,4R)-4-[(5-{[4-(4-chlorobenzyl)-2-thienyl]carbonyl}pyrimidin-4-yl)amino]-2-hydroxycyclopentyl}methyl sulfamate]	–	–	–	inhibition at 0.111 µM (Concentration 0.111 μM): 92%
C[C@@]1(c2csc(C(=O)c3cncnc3N[C@@H]3C[C@H](COS(N)(=O)=O)[C@@H](O)C3)c2)NCCc2ccc(Cl)cc21 (mixture of isomers) [I-321, [(1R,2S,4R)-4-{[5-({4-[(1R)-7-chloro-1-methyl-1,2,3,4-tetrahydroisoquinolin-1-yl]-2-thienyl}carbonyl)pyrimidin-4-yl]amino}-2-hydroxycyclopentyl]methyl sulfamate and [(1R,2S,4R)-4-{[5-({4-[(1S)-7-chloro-1-methyl-1,2,3,4-tetrahydroisoquinolin-1-yl]-2-thienyl}carbonyl)pyrimidin-4-yl]amino}-2-hydroxycyclopentyl]methyl sulfamate]	–	94%	< 10 nM	–
NS(=O)(=O)OC[C@H]1C[C@@H](Nc2ncncc2C(=O)c2cc(Cn3cc(C(F)(F)F)cn3)cs2)C[C@@H]1O [I-130, [(1R,2S,4R)-2-hydroxy-4-({5-[(4-{[4-(trifluoromethyl)-1H-pyrazol-1-yl]methyl}-2-thienyl)carbonyl]pyrimidin-4-yl}amino)cyclopentyl]methyl sulfamate]	> 8.00	–	–	inhibition at 0.111 µM (Concentration 0.111 μM): 97%
NS(=O)(=O)OC[C@H]1C[C@@H](Nc2ncncc2C(=O)c2cc(C3SCCc4ccc(Cl)cc43)cs2)C[C@@H]1O (single isomer, unassigned) [I-320a, [(1R,2S,4R)-4-{[5-({4-[(1R)-7-chloro-3,4-dihydro-1H-isothiochromen-1-yl]-2-thienyl}carbonyl)pyrimidin-4-yl]amino}-2-hydroxycyclopentyl]methyl sulfamate or [(1R,2S,4R)-4-{[5-({4-[(1S)-7-chloro-3,4-dihydro-1H-isothiochromen-1-yl]-2-thienyl}carbonyl)pyrimidin-4-yl]amino}-2-hydroxycyclopentyl]methyl sulfamate]	–	27%	100 to 1000 nM	–
NS(=O)(=O)OC[C@H]1C[C@@H](Nc2ncncc2C(=O)c2cc([C@@H]3OCC(F)(F)c4ccc(Cl)cc43)cs2)C[C@@H]1O.NS(=O)(=O)OC[C@H]1C[C@@H](Nc2ncncc2C(=O)c2cc([C@H]3OCC(F)(F)c4ccc(Cl)cc43)cs2)C[C@@H]1O (mixture of isomers) [I-289, [(1R,2S,4R)-4-{[5-({4-[(1R)-7-chloro-4,4-difluoro-3,4-dihydro-1H-isochromen-1-yl]-2-thienyl}carbonyl)pyrimidin-4-yl]amino}-2-hydroxycyclopentyl]methyl sulfamate and [(1R,2S,4R)-4-{[5-({4-[(1S)-7-chloro-4,4-difluoro-3,4-dihydro-1H-isochromen-1-yl]-2-thienyl}carbonyl)pyrimidin-4-yl]amino}-2-hydroxycyclopentyl]methyl sulfamate]	–	98%	< 10 nM	–
Cc1sc(C(=O)c2cncnc2N[C@@H]2C[C@H](COS(N)(=O)=O)[C@@H](OC(=O)Cc3ccc(OP(=O)(O)O)cc3)C2)cc1[C@@H]1OCCc2ccc(Cl)cc21 [I-364, [(1S,2R,4R)-4-[[5-[4-[(1R)-7-chloroisochroman-1-yl]-5-methyl-thiophene-2-carbonyl]pyrimidin-4-yl]amino]-2-(sulfamoyloxymethyl)cyclopentyl] 2-(4-phosphonooxyphenyl)acetate]	–	–	–	inhibition at 0.111 µM [1]: 13%
NS(=O)(=O)OC[C@H]1C[C@@H](Nc2ncncc2C(=O)c2cc(CCc3cccc(Cl)c3)cs2)C[C@@H]1O [I-146, [(1R,2S,4R)-4-{[5-({4-[2-(3-chlorophenyl)ethyl]-2-thienyl}carbonyl)pyrimidin-4-yl]amino}-2-hydroxycyclopentyl]methyl sulfamate]	> 8.00	–	–	inhibition at 0.111 µM (Concentration 0.111 μM): 94%
Cc1cnn2c1[C@H](c1csc(C(=O)c3cncnc3N[C@@H]3C[C@H](COS(N)(=O)=O)[C@@H](O)C3)c1)OCC2 (mixture of isomers) [I-333, [(1R,2S,4R)-2-hydroxy-4-{[5-({4-[(4S)-3-methyl-6,7-dihydro-4H-pyrazolo[5,1-c][1,4]oxazin-4-yl]-2-thienyl}carbonyl)pyrimidin-4-yl]amino}cyclopentyl]methyl sulfamate and [(1R,2S,4R)-2-hydroxy-4-{[5-({4-[(4R)-3-methyl-6,7-dihydro-4H-pyrazolo[5,1-c][1,4]oxazin-4-yl]-2-thienyl}carbonyl)pyrimidin-4-yl]amino}cyclopentyl]methyl sulfamate]	–	15%	100 to 1000 nM	–
NS(=O)(=O)OC[C@H]1C[C@@H](Nc2ncncc2C(=O)c2cc(Cc3cccc(Cl)c3)c([C@@H]3CCCO3)s2)C[C@@H]1O (single isomer, unassigned) [I-41a, [(1R,2S,4R)-4-{[5-({4-(3-chlorobenzyl)-5-[(2S)-tetrahydrofuran-2-yl]-2-thienyl}carbonyl)pyrimidin-4-yl]amino}-2-hydroxycyclopentyl]methyl sulfamate or [(1R,2S,4R)-4-{[5-({4-(3-chlorobenzyl)-5-[(2R)-tetrahydrofuran-2-yl]-2-thienyl}carbonyl)pyrimidin-4-yl]amino}-2-hydroxycyclopentyl]methyl sulfamate]	> 8.00	–	–	Percent Inhibition (Concentration 0.111 μM): 98
N#Cc1cccc(Cc2csc(C(=O)c3cncnc3N[C@@H]3C[C@H](COS(N)(=O)=O)[C@@H](O)C3)c2)c1 [I-185, {(1R,2S,4R)-4-[(5-{[4-(3-cyanobenzyl)-2-thienyl]carbonyl}pyrimidin-4-yl)amino]-2-hydroxycyclopentyl}methyl sulfamate]	7.00 to 8.00	–	–	inhibition at 0.111 µM (Concentration 0.111 μM): 80%
Cc1sc(C(=O)c2cncnc2N[C@@H]2C[C@H](COS(N)(=O)=O)[C@@H](O)C2)cc1[C@@H]1SCc2ccc(Cl)cc21 (mixture of isomers) [I-359a, [(1RS,2SR,4RS)-4-[[5-[4-[(R)-6-chloro-1,3-dihydro-2-benzothiophene-1-yl]-5-methyl-thiophene-2-carbonyl]pyrimidin-4-yl]amino]-2-hydroxy-cyclopentyl]methyl sulfamate]	–	–	10 to 100 nM	inhibition at 0.111 µM [1]: 92%
